# Entries after “also recorded” stand apart in the source; their conditions may differ.
# How the values were obtained:
# Type in all cases: cell-based
# [1] = test system: DMS114 cells (small cell lung cancer cells); test: Flow cytometry (Annexin V / PI) cell death pathways; details: 15 μg/mL, 3 days
# Experimental: (§1) Cell death pathways were analysed using the Annexin V method, performed by flow cytometry. In this method, Annexin V dye is used to detect cells entering the apoptosis death pathway (Sigma-Aldrich Cat No: 11858777001), while PI (Propidium Iodide) dye is used to detect cells entering the necrosis death pathway (Sigma-Aldrich Cat No: 11858777001).
# (§2) Cells were grown in complete RPMI media (completed with 10% Fetal Bovine Serum and 1% penicillin streptomycin amphotericin) in a humidified CO2 incubator (80% humidity, 5% CO2 and 37° C.). At 70-80% confluency, cells were harvested using Trypsin/EDTA solution. After 3 days of sodium perborate tetrahydrate treatment (15 μg/mL), the cells were harvested and divided into 4 equal tubes. […] Only PI dye was placed in the second tube and necrotic cells were detected. Annexin V dye was placed in the third tube and apoptotic cells were detected. In the fourth tube, two dyes were put together. […] On the other hand, over 90% of MRC5 cells were alive in the control as well as following treatment with sodium perborate tetrahydrate, with only a small percentage (<5%) of treated cells in necrosis.
# [2] = test system: MRC5 cells (healthy lung cells); test: as above; details: 15 μg/mL, 3 days
# Experimental: as §1, §2
# [3] = test system: PSN-1 (a pancreatic adenocarcinoma cell line); test: MTS cytotoxicity assay, single agents and combinations; details: PSN-1, alone
# Experimental: (§3) An MTS reduction (MTS (3-(4,5-dimethylthiazol-2-yl)-5-(3-carboxymethoxyphenyl)-2-(4-sulfophenyl)-2H-tetrazolium) assay) was conducted to analyze the cytotoxic effect of sodium perborate tetrahydrate on lung, chordoma and pancreatic cells and normal cells. In this method, cell viability is determined via the activity of mitochondrial dehydrogenase enzyme, which reduces the tetrazolium dye MTS to its […] formazan (absorbance maximum of 490 nm in PBS).
# (§4) Cells were counted and seeded in 96-well culture dishes. […] The positive control comprised 20% Dimethyl Sulfoxide and the negative control comprised complete growth media. Seeding densities were as follows: DMS114: 20.000 cells/well; MRC5: 5.000 cells/well; CH22: 2.000 cells/well; JHC7, UM-Chor1, MUG-Chor1, UCH1 and NPH: 5.000 cells/well; PSN1: 10.000 cells/well; BxPC3 and ASPC: 7.500 cells/well. The effect of sodium perborate tetrahydrate on cell viability was measured as follows. The cell culture medium was discarded and 100 μl of MTS solution (10% glucose solution and 1% MTS-PMS solution in PBS) was added into each well. After 1 hour incubation in a humidified incubator, an absorbance reading was taken to determine mitochondrial dehydrogenase activity and cell survival was calculated relative to the negative control.
# MRC5 cells = test: Video analysis of cell movement and division
# Experimental: (§5) The DMS114 and MRC5 cells from Example 2 were analyzed during the 3 day treatment period with sodium perborate tetrahydrate. Roughly 20 photos/hour were taken of the cells over the 72 hour (3 day) period. The resulting 1500 were merged to create a video which was used to observe the effect of sodium perborate on movement and division of DMS114 and MRC5 cells. […] FIGS. 21A and 21B show DMS114 cells at the start and end of the 72 hour treatment period. FIGS. 22A and 22B show MRC5 cells at the start and end of the 72 hour treatment period.
# DMS114 cells = test: Video analysis of cell movement and division; details: 72 hour treatment
# Experimental: as §5
# [4] = test system: DMS114 cells (small cell lung cancer cells); test: MTS cytotoxicity assay
# Experimental: as §3, §4
# [5] = test system: chordoma (CH22, JHC7, UM-Chor1, MUG-Chor1, U-CH1) cells; test: MTS cytotoxicity assay
# Experimental: as §3, §4
# normal cells (MRC5, NPH) = test: MTS cytotoxicity assay
# Experimental: as §3, §4
# [6] = test system: pancreatic cancer (PSN1, BxPC3 and ASPC) cells; test: MTS cytotoxicity assay
# Experimental: as §3, §4
smiles,measurement,setting,value
O.O.O.O.[Na+].[O-]B1OO1 [sodium perborate tetrahydrate],cells alive,[1],less than 5%
same,cells in early apoptosis,[1],~80%
same,cells in late apoptosis,[1],~10%
same,"damage to healthy cells (MRC5) relative to cancer cells (DMS114), times less",[2],approximately 5 times
same,cells alive,[2]; MRC5,over 90%
same,treated cells in necrosis,[2]; MRC5,less than 5%
same,EC50 concentration,[3],7.5 µg/mL
same,division and movement of healthy cells,MRC5 cells,slowing cell division and movement of healthy cells to some extent; also recorded: only slowed the division and movement
same,DMS114 cells whose movement was stopped,DMS114 cells,~100%
same,cell survival of lung cancer cell lines,[4],effective in decreasing cell survival
same,EC50 (dose that kills 50% of cells),[4]; DMS114,15 µg/mL
same,time to maximum effect on DMS114 cells,[4]; FIG. 3A,≤ 1 days
same,toxicity compared with other boron derivatives,"[4]; FIGS. 23A-C, same biological model",significantly less toxic than boric acid and sodium pentaborate pentahydrate
same,cell survival of chordoma cell lines,[5],effective in decreasing cell survival
same,cell survival of normal cell lines,"normal cells (MRC5, NPH)",minimal impact on the cell survival
same,cell survival of pancreatic cell lines,[6],effective in decreasing cell survival
